Assay results as given in patent publication US20260209823A1, “KINASE/PHOSPHATASE SUBSTRATE ANALYSIS AND COMPOSITIONS USING SPECTRALLY ENCODED MICROBEADS” (CZ Biohub SF, LLC, priority 2022, published 2026).
Non-standard residues stand in square brackets, D forms with d. No end group written: not given here. pS = N[C@@H](COP(=O)(O)O)C(=O)O

System: Protein phosphatase 1 (PP1)
Assay: Bead-based multiplexed phosphatase activity assay (pIMAGO detection on spectrally encoded beads)
Assay type: biochemical
Conditions: beads incubated with PP1 versus buffer only
Procedure: FIG. 2A-B: Overview and example data from bead-based multiplexed phosphatase activity assay. A) Experimental setup of phosphatase assay. Beads with indicated peptides are incubated with either PP1 (top) or Buffer only (bottom). The beads are washed and the phopsphorylation status of the peptides on the beads is detected using pImago. The beads are analyzed using a microscope capable of exciting beads with UV light and then identifying the spectral code embedded within each bead. B) Preliminary data showing the effect of PP1 phosphatase treatment on the phosphorylation status of the TSFFXGISPIEEEAH peptide (X indicates phosphorylated Serine).
An assay to measure dephosphorylation is performed by incubating the (phospho) substrate peptides, e.g., synthesized directly on the encoded beads, with a phosphatase of interest. […] These images can then be analyzed using open-source image analysis software, e.g., Harink et al., PLOS ONE 2019, to identify the code (and thus the peptide sequence) and amount of phosphorylation associated with each bead. The ratio of phosphorylation detected between a control reaction in the absence of the phosphatase and in the presence of the phosphatase allows determination of how efficiently different peptide sequences are dephosphorylated. […]

TSFFXGISPIEEEAH (TSFF[pS]GISPIEEEAH)
pIMAGO signal (phosphorylation status of bead-bound peptide) after PP1 treatment: loss of the signal
